Results taken from PubChem BioAssay (NCI).
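In this assay, cells in 96-well plates receive the compound at five concentrations for 48 hours. Endpoints are linearly interpolated between the surrounding concentrations. TGI: total growth inhibition.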

Each molecule was assayed on NCI-H226 lung (assay: NCI tumour cell line growth inhibition, 48 h).

For O=C1Oc2cc3c(c4cccc1c24)OCN(c1ccc(Cl)cc1)C3, the TGI was over 100 µM.

These molecules were tested on SK-MEL-2 melanoma (assay: NCI tumour cell line growth inhibition, 48 h).

c1ccc(-c2nnc(-c3nn(-c4ccccc4)c4nc5ccccc5nc34)o2)cc1 and COc1ccc(/C=C(/C(=O)O)c2cc(OC)c(OC)c(OC)c2)cc1 cannot be ordered by TGI: over 100 µM for the first, over 100 µM for the second.

O=C(N/N=C/c1cccc(O)c1O)N/N=C/c1cccc(O)c1O and CC(=O)OCCc1cccnc1/C=N/O cannot be ordered by TGI: over 100 µM for the first, over 100 µM for the second.

For CCOC(=O)CCCO, the TGI was over 100 µM.

These molecules were tested on HOP-18 NSCLC (assay: NCI tumour cell line growth inhibition, 48 h).

Going from c1ccc(-c2nnc(-c3nn(-c4ccccc4)c4nc5ccccc5nc34)o2)cc1 to Cc1cc(C)nc(NS(=O)(=O)c2ccc(NC(=O)c3cccc4c(=O)c5ccccc5[nH]c34)cc2)n1, the TGI falls from over 100 µM to 47.2 µM.

O=C(N/N=C/c1cccc(O)c1O)N/N=C/c1cccc(O)c1O and O=C1Oc2cc3c(c4cccc1c24)OCN(c1ccc(Cl)cc1)C3 are within 1.5-fold of each other in TGI: 67.1 µM for the first, 91.5 µM for the second.

CC(=O)OCCc1cccnc1/C=N/O and CCOC(=O)CCCO cannot be ordered by TGI: over 100 µM for the first, over 100 µM for the second.

Each molecule was assayed on DMS 114 small cell lung (assay: NCI tumour cell line growth inhibition, 48 h).

Compared with c1ccc(-c2nnc(-c3nn(-c4ccccc4)c4nc5ccccc5nc34)o2)cc1, Cc1cc(C)nc(NS(=O)(=O)c2ccc(NC(=O)c3cccc4c(=O)c5ccccc5[nH]c34)cc2)n1 is lower in TGI: over 100 µM for the first, 35.2 µM for the second.

COc1cc2c(cc1OC)C1C=NC(C(=O)O)(C2)c2ccccc21 (stereo unspecified) and COc1ccc(/C=C(/C(=O)O)c2cc(OC)c(OC)c(OC)c2)cc1 cannot be ordered by TGI: over 100 µM for the first, over 100 µM for the second.

O=C(N/N=C/c1cccc(O)c1O)N/N=C/c1cccc(O)c1O and O=C1Oc2cc3c(c4cccc1c24)OCN(c1ccc(Cl)cc1)C3 cannot be ordered by TGI: over 100 µM for the first, over 57.2 µM for the second.

Molecule CC(=O)OCCc1cccnc1/C=N/O has a TGI of over 100 µM.

These molecules were tested on COLO 205 colon (assay: NCI tumour cell line growth inhibition, 48 h).

Going from c1ccc(-c2nnc(-c3nn(-c4ccccc4)c4nc5ccccc5nc34)o2)cc1 to Cc1cc(C)nc(NS(=O)(=O)c2ccc(NC(=O)c3cccc4c(=O)c5ccccc5[nH]c34)cc2)n1, the TGI falls from over 100 µM to 34.5 µM.

COc1cc2c(cc1OC)C1C=NC(C(=O)O)(C2)c2ccccc21 (stereo unspecified) and COc1ccc(/C=C(/C(=O)O)c2cc(OC)c(OC)c(OC)c2)cc1 cannot be ordered by TGI: over 100 µM for the first, over 100 µM for the second.

O=C(N/N=C/c1cccc(O)c1O)N/N=C/c1cccc(O)c1O and O=C1Oc2cc3c(c4cccc1c24)OCN(c1ccc(Cl)cc1)C3 cannot be ordered by TGI: over 100 µM for the first, over 100 µM for the second.

CC(=O)OCCc1cccnc1/C=N/O was tested, and the TGI was over 100 µM.

The molecules below were run on OVCAR-5 ovarian (assay: NCI tumour cell line growth inhibition, 48 h).

c1ccc(-c2nnc(-c3nn(-c4ccccc4)c4nc5ccccc5nc34)o2)cc1 and O=C1Oc2cc3c(c4cccc1c24)OCN(c1ccc(Cl)cc1)C3 cannot be ordered by TGI: over 100 µM for the first, over 77.3 µM for the second.

COc1cc2c(cc1OC)C1C=NC(C(=O)O)(C2)c2ccccc21 (stereo unspecified) and COc1ccc(/C=C(/C(=O)O)c2cc(OC)c(OC)c(OC)c2)cc1 cannot be ordered by TGI: over 100 µM for the first, over 100 µM for the second.

Compared with O=C(N/N=C/c1cccc(O)c1O)N/N=C/c1cccc(O)c1O, CC(=O)OCCc1cccnc1/C=N/O is higher in TGI: 59 µM for the first, over 100 µM for the second.

Work on CCOC(=O)CCCO yielded a TGI of over 100 µM.

What follows are molecules tested on SNB-19 CNS (assay: NCI tumour cell line growth inhibition, 48 h).

Compared with c1ccc(-c2nnc(-c3nn(-c4ccccc4)c4nc5ccccc5nc34)o2)cc1, Cc1cc(C)nc(NS(=O)(=O)c2ccc(NC(=O)c3cccc4c(=O)c5ccccc5[nH]c34)cc2)n1 is lower in TGI: over 100 µM for the first, 80.7 µM for the second.

COc1cc2c(cc1OC)C1C=NC(C(=O)O)(C2)c2ccccc21 (stereo unspecified) and COc1ccc(/C=C(/C(=O)O)c2cc(OC)c(OC)c(OC)c2)cc1 cannot be ordered by TGI: over 100 µM for the first, over 100 µM for the second.

O=C(N/N=C/c1cccc(O)c1O)N/N=C/c1cccc(O)c1O and O=C1Oc2cc3c(c4cccc1c24)OCN(c1ccc(Cl)cc1)C3 cannot be ordered by TGI: over 100 µM for the first, over 100 µM for the second.

CC(=O)OCCc1cccnc1/C=N/O and CCOC(=O)CCCO cannot be ordered by TGI: over 100 µM for the first, over 100 µM for the second.

The molecules below were run on K-562 leukemia (assay: NCI tumour cell line growth inhibition, 48 h).

Going from c1ccc(-c2nnc(-c3nn(-c4ccccc4)c4nc5ccccc5nc34)o2)cc1 to Cc1cc(C)nc(NS(=O)(=O)c2ccc(NC(=O)c3cccc4c(=O)c5ccccc5[nH]c34)cc2)n1, the TGI falls from over 100 µM to 90.3 µM.

COc1cc2c(cc1OC)C1C=NC(C(=O)O)(C2)c2ccccc21 (stereo unspecified) and COc1ccc(/C=C(/C(=O)O)c2cc(OC)c(OC)c(OC)c2)cc1 cannot be ordered by TGI: over 100 µM for the first, over 100 µM for the second.

Going from O=C(N/N=C/c1cccc(O)c1O)N/N=C/c1cccc(O)c1O to O=C1Oc2cc3c(c4cccc1c24)OCN(c1ccc(Cl)cc1)C3, the TGI falls from over 100 µM to 53.2 µM.

CC(=O)OCCc1cccnc1/C=N/O and CCOC(=O)CCCO cannot be ordered by TGI: over 100 µM for the first, over 100 µM for the second.

These molecules were tested on DLD-1 colon (assay: NCI tumour cell line growth inhibition, 48 h).

Going from c1ccc(-c2nnc(-c3nn(-c4ccccc4)c4nc5ccccc5nc34)o2)cc1 to Cc1cc(C)nc(NS(=O)(=O)c2ccc(NC(=O)c3cccc4c(=O)c5ccccc5[nH]c34)cc2)n1, the TGI falls from over 100 µM to 45.6 µM.

COc1cc2c(cc1OC)C1C=NC(C(=O)O)(C2)c2ccccc21 (stereo unspecified) and COc1ccc(/C=C(/C(=O)O)c2cc(OC)c(OC)c(OC)c2)cc1 cannot be ordered by TGI: over 100 µM for the first, over 100 µM for the second.

CC(=O)OCCc1cccnc1/C=N/O and CCOC(=O)CCCO cannot be ordered by TGI: over 100 µM for the first, over 100 µM for the second.

O=C1Oc2cc3c(c4cccc1c24)OCN(c1ccc(Cl)cc1)C3 showed a TGI of over 54.2 µM.

What follows are molecules tested on HT29 colon (assay: NCI tumour cell line growth inhibition, 48 h).

Compared with c1ccc(-c2nnc(-c3nn(-c4ccccc4)c4nc5ccccc5nc34)o2)cc1, Cc1cc(C)nc(NS(=O)(=O)c2ccc(NC(=O)c3cccc4c(=O)c5ccccc5[nH]c34)cc2)n1 is lower in TGI: over 100 µM for the first, 43.9 µM for the second.

COc1cc2c(cc1OC)C1C=NC(C(=O)O)(C2)c2ccccc21 (stereo unspecified) and COc1ccc(/C=C(/C(=O)O)c2cc(OC)c(OC)c(OC)c2)cc1 cannot be ordered by TGI: over 100 µM for the first, over 100 µM for the second.

O=C(N/N=C/c1cccc(O)c1O)N/N=C/c1cccc(O)c1O and O=C1Oc2cc3c(c4cccc1c24)OCN(c1ccc(Cl)cc1)C3 cannot be ordered by TGI: over 100 µM for the first, over 100 µM for the second.

CC(=O)OCCc1cccnc1/C=N/O and CCOC(=O)CCCO cannot be ordered by TGI: over 100 µM for the first, over 100 µM for the second.

The molecules below were run on SK-OV-3 ovarian (assay: NCI tumour cell line growth inhibition, 48 h).

First: c1ccc(-c2nnc(-c3nn(-c4ccccc4)c4nc5ccccc5nc34)o2)cc1
Second: Cc1cc(C)nc(NS(=O)(=O)c2ccc(NC(=O)c3cccc4c(=O)c5ccccc5[nH]c34)cc2)n1
The TGI of the first is higher: over 100 µM for the first, 17.1 µM for the second.

COc1cc2c(cc1OC)C1C=NC(C(=O)O)(C2)c2ccccc21 (stereo unspecified) and COc1ccc(/C=C(/C(=O)O)c2cc(OC)c(OC)c(OC)c2)cc1 cannot be ordered by TGI: over 100 µM for the first, over 100 µM for the second.

O=C(N/N=C/c1cccc(O)c1O)N/N=C/c1cccc(O)c1O and O=C1Oc2cc3c(c4cccc1c24)OCN(c1ccc(Cl)cc1)C3 cannot be ordered by TGI: over 100 µM for the first, over 100 µM for the second.

CC(=O)OCCc1cccnc1/C=N/O and CCOC(=O)CCCO cannot be ordered by TGI: over 100 µM for the first, over 100 µM for the second.

What follows are molecules tested on HCC-2998 colon (assay: NCI tumour cell line growth inhibition, 48 h).

Compared with c1ccc(-c2nnc(-c3nn(-c4ccccc4)c4nc5ccccc5nc34)o2)cc1, Cc1cc(C)nc(NS(=O)(=O)c2ccc(NC(=O)c3cccc4c(=O)c5ccccc5[nH]c34)cc2)n1 is lower in TGI: over 100 µM for the first, 31.7 µM for the second.

CC(=O)OCCc1cccnc1/C=N/O and CCOC(=O)CCCO cannot be ordered by TGI: over 100 µM for the first, over 100 µM for the second.

COc1ccc(/C=C(/C(=O)O)c2cc(OC)c(OC)c(OC)c2)cc1 and O=C1Oc2cc3c(c4cccc1c24)OCN(c1ccc(Cl)cc1)C3 cannot be ordered by TGI: over 100 µM for the first, over 100 µM for the second.

Each molecule was assayed on ACHN renal (assay: NCI tumour cell line growth inhibition, 48 h).

Compared with c1ccc(-c2nnc(-c3nn(-c4ccccc4)c4nc5ccccc5nc34)o2)cc1, Cc1cc(C)nc(NS(=O)(=O)c2ccc(NC(=O)c3cccc4c(=O)c5ccccc5[nH]c34)cc2)n1 is lower in TGI: over 100 µM for the first, 49.2 µM for the second.

O=C(N/N=C/c1cccc(O)c1O)N/N=C/c1cccc(O)c1O and COc1ccc(/C=C(/C(=O)O)c2cc(OC)c(OC)c(OC)c2)cc1 cannot be ordered by TGI: over 100 µM for the first, over 100 µM for the second.

CC(=O)OCCc1cccnc1/C=N/O and CCOC(=O)CCCO cannot be ordered by TGI: over 100 µM for the first, over 100 µM for the second.

For O=C1Oc2cc3c(c4cccc1c24)OCN(c1ccc(Cl)cc1)C3, the TGI was over 100 µM.

What follows are molecules tested on HOP-92 NSCLC (assay: NCI tumour cell line growth inhibition, 48 h).

COc1cc2c(cc1OC)C1C=NC(C(=O)O)(C2)c2ccccc21 (stereo unspecified) and COc1ccc(/C=C(/C(=O)O)c2cc(OC)c(OC)c(OC)c2)cc1 cannot be ordered by TGI: over 100 µM for the first, over 100 µM for the second.

Cc1cc(C)nc(NS(=O)(=O)c2ccc(NC(=O)c3cccc4c(=O)c5ccccc5[nH]c34)cc2)n1 and O=C1Oc2cc3c(c4cccc1c24)OCN(c1ccc(Cl)cc1)C3 are within 1.5-fold of each other in TGI: 44 µM for the first, 49.1 µM for the second.

Compared with O=C(N/N=C/c1cccc(O)c1O)N/N=C/c1cccc(O)c1O, CC(=O)OCCc1cccnc1/C=N/O is higher in TGI: 77.9 µM for the first, over 100 µM for the second.

CCOC(=O)CCCO showed a TGI of over 100 µM.

What follows are molecules tested on RXF 393 renal (assay: NCI tumour cell line growth inhibition, 48 h).

Compared with c1ccc(-c2nnc(-c3nn(-c4ccccc4)c4nc5ccccc5nc34)o2)cc1, O=C1Oc2cc3c(c4cccc1c24)OCN(c1ccc(Cl)cc1)C3 is higher in TGI: 41.4 µM for the first, over 84.2 µM for the second.

First: COc1cc2c(cc1OC)C1C=NC(C(=O)O)(C2)c2ccccc21 (stereo unspecified)
Second: O=C(N/N=C/c1cccc(O)c1O)N/N=C/c1cccc(O)c1O
The TGI of the first is higher: over 100 µM for the first, 86.4 µM for the second.

CC(=O)OCCc1cccnc1/C=N/O and CCOC(=O)CCCO cannot be ordered by TGI: over 100 µM for the first, over 100 µM for the second.

What follows are molecules tested on A498 renal (assay: NCI tumour cell line growth inhibition, 48 h).

COc1cc2c(cc1OC)C1C=NC(C(=O)O)(C2)c2ccccc21 (stereo unspecified) and COc1ccc(/C=C(/C(=O)O)c2cc(OC)c(OC)c(OC)c2)cc1 cannot be ordered by TGI: over 100 µM for the first, over 100 µM for the second.

Compared with Cc1cc(C)nc(NS(=O)(=O)c2ccc(NC(=O)c3cccc4c(=O)c5ccccc5[nH]c34)cc2)n1, O=C1Oc2cc3c(c4cccc1c24)OCN(c1ccc(Cl)cc1)C3 is higher in TGI: 34.9 µM for the first, over 100 µM for the second.

O=C(N/N=C/c1cccc(O)c1O)N/N=C/c1cccc(O)c1O and CCOC(=O)CCCO cannot be ordered by TGI: over 100 µM for the first, over 100 µM for the second.

These molecules were tested on UO-31 renal (assay: NCI tumour cell line growth inhibition, 48 h).

First: c1ccc(-c2nnc(-c3nn(-c4ccccc4)c4nc5ccccc5nc34)o2)cc1
Second: Cc1cc(C)nc(NS(=O)(=O)c2ccc(NC(=O)c3cccc4c(=O)c5ccccc5[nH]c34)cc2)n1
The TGI of the first is higher: over 100 µM for the first, 45.7 µM for the second.
